Data: US20250346938A1, “ATP-DEPENDENT C-TERMINAL MODIFICATION OF POLYPEPTIDES” (Wisconsin Alumni Research Foundation, priority 2024, published 2025)
Ends that are not written are not given here.

Key:
[1] = test system: HsM ccB; assay: H. somni MccB-catalyzed peptide thioester synthesis; type: biochemical; conditions: for thioesterification: Mesna as thiol donor
Protocol: Reactions were incubated for 16 hours at room temperature and quenched with addition of an equivalent volume of 0.6% TFA. […] To screen the ability of H. somni M ccB to catalyze thioesterification of HsLACE peptides, reactions contained M ccB ([…]), ATP (5 mM), M gCl2 (5 mM), peptide substrate (0.25 mM), 25 mM M esna or AcCysNHM e, and reaction buffer (100 mM HEPES, pH 8.0).
H. somni M ccB-catalyzed peptide thioester synthesis. For screening the activity of HsM ccB on HsTeCH, HsLACE1-4, and LACE substrate peptide, […] reactions were prepared that contained 100 mM HEPES, pH 8.0, HsM ccB ([…]), HsTeCH, HsLACE1-4, or LACE peptide ([…]), ATP (5 mM), M gCl2 (5 mM), and thiol (M esna or AcCysNHMe, 25 mM). Reactions were initiated by addition of HsM ccB and incubated for 16-20 h at room temperature. Raw data are available in the Dryad repository at DOI: 10.5061/dryad.c59zw3rkb.

[2] = test system: M ccB; assay: Screening nucleophiles for MccB-mediated modification of MccA-N7G (LC-TOF MS); type: biochemical, E. coli; conditions: HPLC-MS
Protocol: Screening nucleophiles for MccB-mediated ligation of synthetic peptide substrates. Nucleophile were dissolved in water and adjusted to neutral pH using paper pH strips (EM D Millipore). Solutions were stored at −80° C. until further use, unless otherwise noted. M ccA-N7G (250 μM) was incubated with 5 μM MccB, 5 mM ATP, and the corresponding concentration of nucleophile in reaction buffer (25 mM Tris pH 8.0, 10 mM M gCl2). Reactions were incubated for 16 hours at room temperature and quenched with addition of an equivalent volume of 0.6% TFA. […] Extracted ion chromatogram (EIC) peak areas were calculated using Agilent TOF Quantitative Analysis v11.0. Percent conversion of substrate to nucleophile-modified product was calculated using the integrated peak areas from the substrate peptide EIC and production EIC using the formula shown below.

[3] = test system: HpM ccB; assay: C-terminal thioesterification of MccA-N7G peptides by H. pylori MccB (LC-MS); type: biochemical; conditions: HpMccB, ATP, Mesna, 16 h
Sequence of HpM ccB (as listed by the source): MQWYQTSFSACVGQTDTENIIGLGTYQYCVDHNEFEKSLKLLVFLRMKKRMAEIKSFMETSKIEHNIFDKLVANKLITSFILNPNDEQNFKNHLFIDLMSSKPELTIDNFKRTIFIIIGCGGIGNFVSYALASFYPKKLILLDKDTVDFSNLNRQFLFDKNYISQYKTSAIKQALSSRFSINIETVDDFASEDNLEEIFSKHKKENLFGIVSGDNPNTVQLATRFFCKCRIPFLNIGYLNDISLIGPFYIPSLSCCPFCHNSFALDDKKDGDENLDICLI

[4] = test system: E. coli M ccB; assay: LC-TOF MS analysis of MccB-catalyzed AMPylation of MccA variants; type: biochemical; conditions: for formation of stably AMPylated product: HPLC-MS assay
Protocol: LC-TOF MS analysis of M ccB reactions with synthetic peptide substrates. […] Reactions were incubated for 16 hours at room temperature and quenched with addition of an equivalent volume of 0.6% TFA. These reaction conditions were used for M ccBs from E. coli, H. pylori, L. johnsonii, and H. somni.
LC-TOF MS analysis of M ccB-catalyzed N-AM Pylation of M ccA positional scanning peptide library. MccA variants were synthesized individually in-house (according to Solid-phase peptide synthesis) or were purchased from Peptide2.0. […] Reactions were incubated for 16 hours at room temperature and quenched with addition of an equivalent volume of 0.6% TFA. […] Percent conversion was calculated using peak areas from substrate and product EICs. Raw data are available in the Dryad repository at DOI: 10.5061/dryad.c59zw3rkb.

[5] = test system: E. coli M ccB; assay: Enzyme-coupled pyrophosphate (PPi) release assay, E. coli MccB; type: biochemical; conditions: MccA C-terminal variant as substrate for MccB
Text: FIG. 31. Enzyme-coupled pyrophosphate assay for detection of M ccB-catalyzed pyrophosphate release. M ccB-catalyzes release of pyrophosphate, which is converted to phosphate by inorganic pyrophosphatase (PPiase). Purine nucleoside phosphorylase (PN Pase) uses phosphate as a substrate to convert 2-amino-6-mercapto-7-methylpurine ribonucleoside (M ESG) to ribose 1-phosphate and 2-amino-6-mercapto-7-methylpurine, which absorbs at 360 nm.
Purine nucleoside phosphorylase (PNP)/inorganic pyrophosphate (IP)-coupled kinetic assays. The kinetics of M ccB-catalyzed adenylation were characterized using an enzyme-coupled assay for detecting formation of pyrophosphate EnzCheck Pyrophosphate Assay Kit (Thermo Fisher Scientific) (FIG. 31). To screen M ccB for adenylation activity with C-terminal variants of MccA, 5 μM of the appropriate MccB variant was incubated with 0.25 mM of each M ccA variant in a reaction with 0.25 mM ATP, 5 mM M gCl2, 0.5 U/mL purine nucleoside phosphorylase (PNP), and 0.5 U/mL inorganic pyrophosphatase (IP). To screen E. coli, H. pylori, and L. johnsonii M ccB homologs for adenylation activity with MccA homologs, 5 μM of the appropriate MccB enzyme was incubated with 0.25 mM of each M ccA variant in a reaction with 0.25 mM ATP, 5 mM M gCI2, 0.5 U/mL purine nucleoside phosphorylase (PNP), and 0.5 U/mL inorganic pyrophosphatase (IP). Reactions containing HpM ccA-N7G and LjM ccA-N 7G peptides also contained 5 mM M esna and 5 mM TCEP. To collect steady-state kinetics data for individual peptide substrates, the peptide concentration was varied from 0-600 μM in a reaction with 5 μM MccB, 0.25 mM ATP, 5 mM MgCl2, 0.5 U/mL purine nucleoside phosphorylase (PNP), and 0.5 U/mL inorganic pyrophosphatase (IP). […] We therefore repeated measurements for the MccA-N7G peptide using an MccB concentration of […] and a substrate concentration range from 0-100 μM. Reactions were initiated with the addition of M ccB and absorbance at 360 nm was monitored using a Tecan Infinite M 200 plate reader. Initial rates of pyrophosphate production were calculated based on the initial rate of absorbance change and the resulting purine analog extinction coefficient (11,000 M-1 cm-1). Reactions were carried out in triplicate and data analysis was performed using GraphPad Prism 10.

[6] = test system: M ccB; assay: MccB-catalyzed C-terminal thioesterification / Cys ligation of TeCH-tag fusion proteins (intact protein LC-MS); type: biochemical, E. coli; conditions: ATP (5 mM), Mesna (5 mM)
Protocol: M ccB-mediated ligation of GFP-MccA-N7G protein substrates. GFP-M ccA-N7G variant (50 μM) was incubated with 5 μM MccB, 5 mM ATP, and the appropriate concentration of cysteine or Mesna/TCEP in reaction buffer (25 mM Tris pH 8.0, 10 mM M gCl2). Reactions were incubated at room temperature for the indicated times. For labeling time course experiments, reactions were quenched with the addition of an equivalent volume of 0.6% TFA.

CNC(=O)[C@H](CS)NC(C)=O [A cCysNHM e]
thiol donor for HsMccB-catalyzed thioesterification [1]: poor thiol donor

O=C(O)Cc1ccc(S)cc1 [M PAA, 4-mercaptophenylacetic acid]
capture of O-AMPylated intermediate / modification of MccA-N7G C terminus by nucleophile [2]: inability

C#CCCNC(=O)c1ccc(CCNN)cc1 [N-(but-3-yn-1-yl)-4-(2-hydrazineylethyl)benzamide]
capture of O-AMPylated intermediate / modification of MccA-N7G C terminus by nucleophile [2]: unable to modify

Cl.NO [hydroxylamine, hydroxylamine hydrochloride]
capture of O-AMPylated intermediate / modification of MccA-N7G C terminus by nucleophile [2]: efficient capture

Cys-Trp
capture of O-AMPylated intermediate / modification of MccA-N7G C terminus by nucleophile [2]: no modification

LRLRGG (not fully specified (C-terminus))
thioesterification [1]: 18%

M KLSY RG (MKLSYRG) [HpM ccA-N7G]
conversion to C-terminal thioester, yield [3]: > 97%

MHRIMKN (listed as Lactobacillus johnsonii) [LjM ccA, at b127 probably the N7G variant is meant, reference compound]
conversion to C-terminal thioester, yield [3]: 13%

MLRLRGG (listed as Histophilus somni) [HsLACE4]
thioesterification [1]: < 1%

MRTGNAN (listed as Escherichia coli) [wild-type M ccA, reference compound]
formation of C-terminally N-AMPylated phosphoramidate product ([4]; positional scanning library, 16 h): fully converted

MccA-N7A: E. coli MccA (MRTGNAN) with C-terminal Asn varied to Ala (MRTGNAA)
stimulation of PPi formation [5]: substantial stimulation | formation of stably AMPylated product [4]: no stably A M Pylated product was observed

MccA-N7S: E. coli MccA (MRTGNAN) with C-terminal Asn varied to Ser (MRTGNAS)
stimulation of PPi formation [5]: substantial stimulation | formation of stably AMPylated product [4]: no stably A M Pylated product was observed

MccA-N7T: E. coli MccA (MRTGNAN) with C-terminal Asn varied to Thr (MRTGNAT)
stimulation of PPi formation [5]: substantial stimulation | formation of stably AMPylated product [4]: no stably A M Pylated product was observed

B1: a-GFP rAb (protein)
light: SDIQMTQSPSSLSASVGDRVTITCRASQSVSSAVAWYQQKPGKAPKLLIYSASSLYSGVPSRFSGSRSGTDFTLTISSLQPEDFATYYCQQSWGLITFGQGTKVEIKRTVAAPSVFIFPPSDSQLKSGTASVVCLLNNFYPREAKVQWKVDNALQSGNSQESVTEQDSKDSTYSLSSTLTLSKADYEKHKVYACEVTHQGLSSPVTKSFNRGEC
heavy: EISEVQLVESGGGLVQPGGSLRLSCAASGFNISYYSIHWVRQAPGKGLEWVASIYPYYSSTSYADSVKGRFTISADTSKNTAYLQMNSLRAEDTAVYYCARAGWVASSGMDYWGQGTLVTVSSASTKGPSVFPLAPSSKSTSGGTAALGCLVKDYFPEPVTVSWNSGALTSGVHTFPAVLQSSGLYSLSSVVTVPSSSLGTQTYICNVNHKPSNTKVDKKVEPKSCGGGGGMRTGNAGAFAGAGSK
modifications: non-natural residues; cyclised or stapled
time to complete conversion to thioester [6]: 16 h

B2: protein L: protein L with C-terminal TeCH-tag (SEQ ID NO: 75) (protein)
chain: MHHHHHHKEETPETPETDSEEEVTIKANLIFANGSTQTAEFKGTFEKATSEAYAYADTLKKDNGEYTVDVADKGYTLNIKFAGKEKTPEEPKEEVTIKANLIYADGKTQTAEFKGTFEEATAEAYRYADALKKDNGEYTVDVADKGYTLNIKFAGKEKTPEEPKEEVTIKANLIYADGKTQTAEFKGTFEEATAEAYRYADLLAKENGKYTVDVADKGYTLNIKFAGKEKTPEEPKEEVTIKANLIYADGKTQTAEFKGTFAEATAEAYRYADLLAKENGKYTADLEDGGYTINIRFAGKKVDEKPEEKEQVTIKENIYFEDGTVQTATFKGTFAEATAEAYRYADLLSKEHGKYTADLEDGGYTINIRFAGGGGSGGGSMRTGNAG
modifications: C-terminal TeCH-tag; Linker and MccB recognition sequence
time to complete conversion to thioester [6]: 16 h

B3: PTP 1B 1-321: catalytic domain of protein tyrosine phosphatase 1B with TeCH-tag (SEQ ID NO: 76) (protein)
chain: MGHHHHHHDYDIPTTENLYFQGSMEMEKEFEQIDKSGSWAAIYQDIRHEASDFPCRVAKLPKNKNRNRYRDVSPFDHSRIKLHQEDNDYINASLIKMEEAQRSYILTQGPLPNTCGHFWEMVWEQKSRGVVMLNRVMEKGSLKCAQYWPQKEEKEMIFEDTNLKLTLISEDIKSYYTVRQLELENLTTQETREILHFHYTTWPDFGVPESPASFLNFLFKVRESGSLSPEHGPVVVHCSAGIGRSGTFCLADTCLLLMDKRKDPSSVDIKKVLLEMRKFRMGLIQTADQLRFSYLAVIEGAKFIMGDSSVQDQWKELSHEDLEPPPEHIPPPPRPPKRILEPHNGGGGMRTGNAG
modifications: TeCH-tag; N-terminal His tag and TEV protease cleavage site sequence; Linker and MccB recognition sequence
time to complete conversion to thioester [6]: 1 h
